The record followed here is patent US20260193264A1, “BENZOYPARAZINE PYRAZINES AND THEIR USES” (FOGHORN THERAPEUTICS INC., priority 2022, published 2026).

The target in experiment [1] is T1, HiBit-BRG1 fusion protein in stable HeLa cell line expressing HiBit-BRG1 and LgBit (Homo sapiens, UniProt P51532).
T1 construct: expressed in transfected cells
Put plainly: HiBiT-BRG1 cell-based degradation assay (Nano-Glo HiBiT, 24 h). The settings on record: HeLa HiBit-BRG1/LgBit cells; for DC50: read-out: BRMG1 HiBit Degradation IC50; for Dmax: top dose 30 μM, read-out: BRG1 HiBit Degradation Maximum (%). An outline of the steps:
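Degradation calculated from NanoBiT luminescence relative to DMSO-treated cells (high) and cells given 2 μM known BRM/BRG1 degrader (low). HeLa cells stably expressing HiBiT-BRG1 plus LgBiT were exposed to compound for 24 h before lytic HiBiT detection.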

In experiment [2] the target is T2, HiBiT-BRM fusion protein in stable HeLa cell line (Homo sapiens, UniProt P51531).
T2 construct: expressed in transfected cells
Put plainly: HiBiT-BRM cell-based degradation assay (Nano-Glo HiBiT Lytic Detection, 24 h). The arrangement: DC50: scale not given here. The following applies: HeLa HiBiT-BRM cells; for DC50: read-out: BRM HiBit Degradation IC50; for BRM HiBit Degradation Maximum (%): top dose 30 μM. An outline of the steps:
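HeLa stably expressing HiBiT-BRM; 24 h compound exposure, 10-pt 3-fold dilution from 30 μM final, duplicates. Lytic LgBiT complementation, luminescence. % degradation vs DMSO (HC) and 2 μM known BRM/BRG1 degrader (LC).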

T2 sequence (P51531 whole entry, the tested form may be a part): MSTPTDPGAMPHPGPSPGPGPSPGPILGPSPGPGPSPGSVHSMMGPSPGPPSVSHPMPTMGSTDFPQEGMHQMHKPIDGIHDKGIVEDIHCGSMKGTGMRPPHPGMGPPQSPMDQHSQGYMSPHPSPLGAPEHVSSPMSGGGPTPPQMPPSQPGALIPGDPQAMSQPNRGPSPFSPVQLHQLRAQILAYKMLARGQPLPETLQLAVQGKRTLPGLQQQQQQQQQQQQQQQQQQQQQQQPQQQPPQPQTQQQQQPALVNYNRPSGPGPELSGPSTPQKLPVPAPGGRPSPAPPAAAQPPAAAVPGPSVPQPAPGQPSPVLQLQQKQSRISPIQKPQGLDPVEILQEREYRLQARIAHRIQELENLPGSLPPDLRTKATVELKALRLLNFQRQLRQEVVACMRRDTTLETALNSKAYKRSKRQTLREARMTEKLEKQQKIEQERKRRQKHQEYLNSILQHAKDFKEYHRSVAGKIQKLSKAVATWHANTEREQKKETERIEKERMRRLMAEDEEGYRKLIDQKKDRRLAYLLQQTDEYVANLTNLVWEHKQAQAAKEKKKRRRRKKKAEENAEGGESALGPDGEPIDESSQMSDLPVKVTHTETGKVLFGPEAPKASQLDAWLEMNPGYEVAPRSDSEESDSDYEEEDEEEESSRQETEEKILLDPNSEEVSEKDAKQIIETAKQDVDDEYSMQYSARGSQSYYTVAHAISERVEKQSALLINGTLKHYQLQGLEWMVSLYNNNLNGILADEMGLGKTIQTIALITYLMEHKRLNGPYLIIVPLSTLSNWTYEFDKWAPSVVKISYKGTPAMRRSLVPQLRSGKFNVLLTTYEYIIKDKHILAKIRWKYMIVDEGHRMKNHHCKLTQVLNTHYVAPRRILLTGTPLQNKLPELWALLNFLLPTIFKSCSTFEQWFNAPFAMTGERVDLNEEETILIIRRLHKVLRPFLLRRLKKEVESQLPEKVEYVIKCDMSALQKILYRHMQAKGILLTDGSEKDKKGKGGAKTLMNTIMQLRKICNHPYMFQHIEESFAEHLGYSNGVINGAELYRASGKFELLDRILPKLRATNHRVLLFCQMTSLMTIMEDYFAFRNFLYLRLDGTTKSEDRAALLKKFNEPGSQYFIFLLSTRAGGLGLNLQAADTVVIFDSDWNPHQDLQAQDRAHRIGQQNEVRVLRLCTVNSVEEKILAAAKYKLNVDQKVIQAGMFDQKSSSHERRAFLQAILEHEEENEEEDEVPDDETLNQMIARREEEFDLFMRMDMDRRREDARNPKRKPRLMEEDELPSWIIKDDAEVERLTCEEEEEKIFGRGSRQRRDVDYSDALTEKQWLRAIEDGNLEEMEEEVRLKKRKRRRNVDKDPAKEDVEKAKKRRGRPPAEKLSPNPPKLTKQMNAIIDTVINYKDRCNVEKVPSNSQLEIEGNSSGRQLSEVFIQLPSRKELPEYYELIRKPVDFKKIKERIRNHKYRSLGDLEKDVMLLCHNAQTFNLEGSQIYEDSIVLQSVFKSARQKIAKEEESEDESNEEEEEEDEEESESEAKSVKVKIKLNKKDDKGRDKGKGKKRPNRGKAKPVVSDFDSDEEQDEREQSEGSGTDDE
T1 sequence (P51532 whole entry, the tested form may be a part): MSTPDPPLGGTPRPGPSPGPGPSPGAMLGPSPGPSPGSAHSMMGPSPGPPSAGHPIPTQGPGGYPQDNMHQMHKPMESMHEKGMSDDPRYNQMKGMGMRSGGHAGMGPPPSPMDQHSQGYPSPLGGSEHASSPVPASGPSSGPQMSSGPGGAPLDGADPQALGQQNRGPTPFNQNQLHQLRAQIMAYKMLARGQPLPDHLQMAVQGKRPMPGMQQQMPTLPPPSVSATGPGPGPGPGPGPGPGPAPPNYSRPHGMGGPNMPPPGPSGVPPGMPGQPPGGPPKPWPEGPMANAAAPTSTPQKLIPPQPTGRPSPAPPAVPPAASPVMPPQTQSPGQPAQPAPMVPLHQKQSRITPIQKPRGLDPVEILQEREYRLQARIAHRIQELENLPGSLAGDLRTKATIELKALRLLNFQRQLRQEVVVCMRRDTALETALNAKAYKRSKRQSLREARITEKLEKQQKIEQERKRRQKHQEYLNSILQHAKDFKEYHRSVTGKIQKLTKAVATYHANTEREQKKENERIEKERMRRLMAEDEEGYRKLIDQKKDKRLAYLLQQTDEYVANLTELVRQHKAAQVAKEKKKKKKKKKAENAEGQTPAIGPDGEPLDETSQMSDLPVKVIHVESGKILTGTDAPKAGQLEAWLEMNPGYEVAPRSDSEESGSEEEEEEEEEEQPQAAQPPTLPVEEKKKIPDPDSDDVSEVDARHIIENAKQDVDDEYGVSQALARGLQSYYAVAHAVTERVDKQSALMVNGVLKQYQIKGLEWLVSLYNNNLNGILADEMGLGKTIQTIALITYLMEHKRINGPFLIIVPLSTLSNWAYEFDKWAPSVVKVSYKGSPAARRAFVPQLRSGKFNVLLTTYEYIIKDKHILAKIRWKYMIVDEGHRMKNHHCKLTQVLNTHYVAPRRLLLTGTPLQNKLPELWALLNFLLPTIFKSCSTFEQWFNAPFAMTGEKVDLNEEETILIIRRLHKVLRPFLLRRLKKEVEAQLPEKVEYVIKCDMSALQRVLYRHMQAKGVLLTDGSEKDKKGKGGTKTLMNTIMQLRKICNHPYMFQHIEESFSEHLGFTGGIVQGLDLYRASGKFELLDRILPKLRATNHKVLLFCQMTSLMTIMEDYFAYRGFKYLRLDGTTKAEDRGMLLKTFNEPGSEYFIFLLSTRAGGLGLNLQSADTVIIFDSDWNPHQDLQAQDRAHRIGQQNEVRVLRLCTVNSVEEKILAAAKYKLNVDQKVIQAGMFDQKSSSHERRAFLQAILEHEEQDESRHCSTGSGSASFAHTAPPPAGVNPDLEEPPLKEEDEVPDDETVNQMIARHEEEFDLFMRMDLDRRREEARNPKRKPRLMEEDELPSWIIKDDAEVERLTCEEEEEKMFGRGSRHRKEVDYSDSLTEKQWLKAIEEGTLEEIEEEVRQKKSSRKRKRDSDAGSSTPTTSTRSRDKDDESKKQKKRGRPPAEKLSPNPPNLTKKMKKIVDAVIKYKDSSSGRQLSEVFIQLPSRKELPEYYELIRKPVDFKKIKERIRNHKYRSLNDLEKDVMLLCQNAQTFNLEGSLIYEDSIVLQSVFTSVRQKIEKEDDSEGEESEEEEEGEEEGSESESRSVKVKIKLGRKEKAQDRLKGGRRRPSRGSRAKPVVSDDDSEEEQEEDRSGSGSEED

As for `CC(C)[C@@H](C(=O)N1C[C@H](O)C[C@H]1C(=O)N[C@@H](C)c1ccccc1)c1cc(-c2ccc3nnc(-c4ccccc4O)cc3c2)no1` [Compound 133, (2S,4R)-4-hydroxy-1-((R)-2-(3-(3-(2-hydroxyphenyl)cinnolin-6-yl)isoxazol-5-yl)-3-methylbutanoyl)-N-((S)-1-phenylethyl)pyrrolidine-2-carboxamide], in experiment [1], the DC50 is > 10 nM and the Dmax was > 75%. In experiment [2], the DC50 is < 10 nM and the “BRM HiBit Degradation Maximum (%)” value is “A (“A” indicates maximum degradation ≥75%)”.
For `CC(C)[C@@H](C(=O)N1C[C@H](O)C[C@H]1C(=O)N[C@@H](C)c1ccc(F)cc1)c1cc(-c2ccc3nnc(-c4ccccc4O)cc3c2)no1` [Compound 134, (2S,4R)-N-((S)-1-(4-fluorophenyl)ethyl)-4-hydroxy-1-((R)-2-(3-(3-(2-hydroxyphenyl)cinnolin-6-yl)isoxazol-5-yl)-3-methylbutanoyl)pyrrolidine-2-carboxamide] the same measures were > 10 nM, > 75%, < 10 nM and “A (“A” indicates maximum degradation ≥75%)”.
On to `Cc1ncsc1-c1ccc([C@H](C)NC(=O)[C@@H]2C[C@@H](O)CN2C(=O)[C@@H](c2cc(N3CCN([C@@H]4CCN(Cc5ccc6nnc(-c7ccccc7O)cc6c5)CC4(F)F)CC3)no2)C(C)C)cc1` [Compound 136, (2S,4R)-1-((R)-2-(3-(4-((R)-3,3-difluoro-1-((3-(2-hydroxyphenyl)cinnolin-6-yl)methyl)piperidin-4-yl)piperazin-1-yl)isoxazol-5-yl)-3-methylbutanoyl)-4-hydroxy-N-((S)-1-(4-(4-methylthiazol-5-yl)phenyl)ethyl)pyrrolidine-2-carboxamide], for which, in experiment [1], the DC50 is < 10 nM and the Dmax is > 75%. In addition, in experiment [2], the DC50 was < 10 nM and the “BRM HiBit Degradation Maximum (%)” value was “A (“A” indicates maximum degradation ≥75%)”.
Take `Cc1ncsc1-c1ccc([C@H](C)NC(=O)[C@@H]2C[C@@H](O)CN2C(=O)[C@@H](c2cc(N3CCN([C@H]4CCN(Cc5ccc6nnc(-c7ccccc7O)cc6c5)CC4(F)F)CC3)no2)C(C)C)cc1` [Compound 137, (2S,4R)-1-((R)-2-(3-(4-((S)-3,3-difluoro-1-((3-(2-hydroxyphenyl)cinnolin-6-yl)methyl)piperidin-4-yl)piperazin-1-yl)isoxazol-5-yl)-3-methylbutanoyl)-4-hydroxy-N-((S)-1-(4-(4-methylthiazol-5-yl)phenyl)ethyl)pyrrolidine-2-carboxamide]: in experiment [1], the DC50 was < 10 nM and the Dmax was > 75%. Besides, in experiment [2], the DC50 is < 10 nM and the “BRM HiBit Degradation Maximum (%)” value is listed as “A (“A” indicates maximum degradation ≥75%)”.
`COC[C@H]1CN(c2cc([C@H](C(=O)N3C[C@H](O)C[C@H]3C(=O)N[C@@H](C)c3ccc(-c4scnc4C)cc3)C(C)C)on2)CCN1c1ccc2nnc(-c3ccccc3O)cc2c1` [Compound 138, (2S,4R)-4-hydroxy-1-((R)-2-(3-((R)-4-(3-(2-hydroxyphenyl)cinnolin-6-yl)-3-(methoxymethyl)piperazin-1-yl)isoxazol-5-yl)-3-methylbutanoyl)-N-((S)-1-(4-(4-methylthiazol-5-yl)phenyl)ethyl)pyrrolidine-2-carboxamide]: in experiment [1], the DC50 was > 10 nM and the Dmax was > 75%. In experiment [2], the DC50 was < 10 nM and the “BRM HiBit Degradation Maximum (%)” value is recorded as “A (“A” indicates maximum degradation ≥75%)”.
`COC[C@H]1CN(c2cc([C@H](C(=O)N3C[C@H](O)C[C@H]3C(=O)N[C@@H](C)c3ccc(-c4scnc4C)cc3)C(C)C)on2)CCN1c1ccc2cc(-c3ccccc3O)nnc2c1` [Compound 142, (2S,4R)-4-hydroxy-1-((R)-2-(3-((R)-4-(3-(2-hydroxyphenyl)cinnolin-7-yl)-3-(methoxymethyl)piperazin-1-yl)isoxazol-5-yl)-3-methylbutanoyl)-N-((S)-1-(4-(4-methylthiazol-5-yl)phenyl)ethyl)pyrrolidine-2-carboxamide]: the Dmax in experiment [1] was < 50%. Also, in experiment [2], the DC50 is > 10 nM and the “BRM HiBit Degradation Maximum (%)” value is listed as “A (“A” indicates maximum degradation ≥75%)”.
On the same counts, the results for `Cc1ncsc1-c1ccc([C@H](C)NC(=O)[C@@H]2C[C@@H](O)CN2C(=O)[C@@H](c2cc(-c3ccc4nnc(-c5cccc(F)c5O)cc4c3)no2)C(C)C)cc1` [Compound 143, (2S,4R)-1-((R)-2-(3-(3-(3-fluoro-2-hydroxyphenyl)cinnolin-6-yl)isoxazol-5-yl)-3-methylbutanoyl)-4-hydroxy-N-((S)-1-(4-(4-methylthiazol-5-yl)phenyl)ethyl)pyrrolidine-2-carboxamide] are < 50%, < 10 nM and “A (“A” indicates maximum degradation ≥75%)”.
With `COC[C@@H]1CN(c2cc(C(C(=O)N3C[C@H](O)C[C@H]3C(=O)N[C@@H](C)c3ccc(-c4scnc4C)cc3)C(C)C)on2)CCN1c1ccc2nnc(-c3ccccc3O)cc2c1` (stereo partly drawn) [Compound 144, (2S,4R)-4-hydroxy-1-(2-(3-((S)-4-(3-(2-hydroxyphenyl)cinnolin-6-yl)-3-(methoxymethyl)piperazin-1-yl)isoxazol-5-yl)-3-methylbutanoyl)-N-((S)-1-(4-(4-methylthiazol-5-yl)phenyl)ethyl)pyrrolidine-2-carboxamide], in experiment [1], the DC50 is > 10 nM and the Dmax was > 75%. Also, in experiment [2], the DC50 is < 10 nM and the “BRM HiBit Degradation Maximum (%)” value is “A (“A” indicates maximum degradation ≥75%)”.
Take `Cc1ncsc1-c1ccc([C@H](C)NC(=O)[C@@H]2C[C@@H](O)CN2C(=O)[C@@H](c2cc(N3CC4(CN(c5cc(C)c6cc(-c7ccccc7O)nnc6c5)C4)C3)no2)C(C)C)cc1` [Compound 145, (2S,4R)-4-hydroxy-1-((R)-2-(3-(6-(3-(2-hydroxyphenyl)-5-methylcinnolin-7-yl)-2,6-diazaspiro[3.3]heptan-2-yl)isoxazol-5-yl)-3-methylbutanoyl)-N-((S)-1-(4-(4-methylthiazol-5-yl)phenyl)ethyl)pyrrolidine-2-carboxamide]: the Dmax in experiment [1] is < 50%. Besides, in experiment [2], the DC50 is < 10 nM and the “BRM HiBit Degradation Maximum (%)” value is on record as “A (“A” indicates maximum degradation ≥75%)”.
On to `Cc1ncsc1-c1ccc([C@H](C)NC(=O)[C@@H]2C[C@@H](O)CN2C(=O)[C@@H](c2cc(N3CCOC4(CN(c5ccc6nnc(-c7ccccc7O)cc6c5)C4)C3)no2)C(C)C)cc1` [Compound 146, (2S,4R)-4-hydroxy-1-((R)-2-(3-(2-(3-(2-hydroxyphenyl)cinnolin-6-yl)-5-oxa-2,8-diazaspiro[3.5]nonan-8-yl)isoxazol-5-yl)-3-methylbutanoyl)-N-((S)-1-(4-(4-methylthiazol-5-yl)phenyl)ethyl)pyrrolidine-2-carboxamide], for which, in experiment [1], the DC50 was > 10 nM and the Dmax is > 75%. In experiment [2], the DC50 was < 10 nM and the “BRM HiBit Degradation Maximum (%)” value was “A (“A” indicates maximum degradation ≥75%)”.
